Data as given in PMC7363885, “Fluorescent artificial receptor-based membrane assay (FARMA) for spatiotemporally resolved monitoring of biomembrane permeability” (Communications Biology, 2020).
“Also recorded” adds a separate entry of the source. Where two headings read alike, the source gives them in different places. Marks after values point to notes of the source that are not given here.

Columns and labels:
[1] = Procedure: Supplementary Table 3 | Qualitative assessment of membrane permeability for more tha n 90 different organic compoundsa investigated by the FARMA-assay with receptors FAR-1, FAR-2, and FAR-3, and, for comparison, investigations by the dye displacement signal generation strategy with the sensing ensembles (CB8•MV•2,6-ANS, CB8•MV•5HO-Trp, CB7•BE, and CB7•PAL). […]
a See also Fig. 2 in main text for chemical structures. b λexc = 400 nm, λobs = 450 nm. c λexc = 310 nm, λobs = […]
ethanol (10 mM stock). m Emerging excimer band at λobs = 500 nm was monitored. n Control experiment in the absence of host (CB8) was also carried out. o λobs = 500 nm was chosen to by-pass the self-fluorescence

FAR-2 = experiment: Fluorescence titration, FAR•analyte complex formation in homogeneous solution; details: 10 mM HEPES buffer (pH 7), 1:1 binding model, error estimate ≤ 20%
Procedure: (§1) Fluorescence titrations were carried out in aqueous HEPES buffer (10 mM, pH 7, 22 °C) unless stated otherwise. To a solution of the FAR (typically at 10–30 μM) was stepwise added a solution of the analyte (typically up to 2 mM) and the fluorescence spectra were recorded. The normalized emissions at 450 nm (FAR-1) or at 370 nm (FAR-2) were fitted with an equation for a 1 : 1 binding by a least-square fit. The resulting affinity constants are reported in Supplementary Table 1. Representative titration plots are shown in Supplementary Fig. 1.

[2] = Dye displacement membrane assay (liposome-encapsulated host•dye ensembles)
Description: Supplementary Figure 13 | Graphical representation of membrane assays using dye displacement for signaling. Diffusion of analytes through a lipid membrane is detected by displacement of the dye from (a) a host•dye or (b) a host•dye•quencher complex, leading to reduction or enhancement in emission intensity.
Supplementary Figure 14 | Membrane permeation monitoring of analytes by dye displacement. (a) Time-resolved changes in fluorescence intensity of CB7•BE-loaded liposomes (λexc = 347 nm, λobs = 500 nm) upon addition of the membrane-permeable analyte tyramine and membrane destabilizing peptide melittin.
(b) Evolution of fluorescence intensity after addition of dimethylbenzylamine (DMBA) to CB7•PAL-loaded liposomes (λexc = 347 nm, λobs = 500 nm). (c) Fluorescence response after addition of the […]
tryptophan to liposomes loaded with CB8•MV•2,6-ANS (λexc = 380 nm, λobs = 463 nm). […]
Combing equations S1 and S2, one arrives at Papp = kp∙(r/3) = kobs/canalyte∙cFAR∙(r/3) (equation 1 in main text)
Dye displacement membrane assay
Dye displacement membrane assays rely on selective encapsulation of reporter pairs inside liposomes and the reversible interaction between the receptor and the translocated analyte. To conduct the assay, liposomes containing the chemosensing ensemble composed of a macrocyclic host and a dye are prepared and purified, such that a subsequently added analyte affects the dye fluorescence only if it can enter the vesicle and displaces the dye from the macrocycle. Until now, only the dye displacement has been used as the signaling mechanism for tandem membrane assays,3, 4 whereby the competitive displacement of the dye from such host•dye complexes upon analyte addition restores the fluorescence features of the dye in solution, Supplementary Figures 13 - 14.
Specifically, this signaling mechanism has been mostly employed with macrocyclic host s with cavity space that is capable o f forming 1:1 complex es, e.g., cucurbit[7]uril (CB7) and the dyes berberine (BER) or palmatine (PAL), see Supplementary Figure 13a, or with p-sulfonato calix[4]arene (CX4) and lucigenin.3,4 Expanding the repertoire of chemosensors for tandem membrane assay s, we exploit herein also the ability of a larger macrocyclic host such as cucurbit[8]uril (CB8) to form 1:1:1 ternary complexes,5-7 and utilize here the quencher methyl viologen (MV) in combination with the fluorescent dyes 5-hydroxy tryptophan (5HO-Trp), 2-anilinonaphthalene -6-sulfonic acid (2,6-ANS) or dapoxyl sulfonic acid, sodium salt (DapoxS), Supplementary Figure 13b. Upon addition of an analyte, the fluorescent dye, the quencher or both the fluorescent dye and quencher are displaced from the CB8 cavity, which in each case is reflected by an increase in the emission intensity of the dye (switch -on displacement assay), Supplementary Figures 14- […]
The dye displacement signal strategy has two important disadvantages compared to the preferred fluorescent artificial receptor (FAR) assays:
(i) The dye displacement strategy is limited to strongly binding analytes, i.e., K(analyte) ≥ K(dye), otherwise a large excess concentration of analyte is needed to generate significant

in vitro = experiment: in vitro
Description: Elementary physical parameters, such as permeability coefficients, can be extracted from the full kinetic FARMA data. This kinetic profile → parameter mapping requires some assumptions to be made in regard to the permeation mechanism. We applied a reported permeation model for liposomes[31] to arrive at permeation rate constants (kp) and apparent permeability coefficients (Papp). The derivation of the mathematical relation (1), linking the fundamental permeability rate constant and permeability coefficient to experimental measurable kobs rate constants, the known total analyte and total FAR concentration, and the experimentally determined liposome radius (r), is shown in the Supplementary Information.1 Papp=kp⋅r/3=kobs/canalyte⋅cFAR⋅r/3 […]
The volume-to-surface correction factor r/3 accounts for the fact that the observed rates depend on the size, i.e., radius r, of the liposomal assembly. […] The initial-rate method can also be applied, see the Supplementary Information. Moreover, kobs/canalyte can be estimated by single-point measurements at selected canalyte concentration.
A solution of 2.5 mg/mL of POPC and 0.33 mg/mL of POPS in chloroform was purged with nitrogen and dried overnight under […] vacuum. […] The resulting FAR-loaded liposomes were separated from non-encapsulated species by size-exclusion chromatography (NAP-25 column), while maintaining the same buffer. The absence of non-encapsulated FAR was confirmed by adding a non-membrane-permeable species such as tryptophan to a fluorescence cuvette containing 25 µL of liposomes diluted in 1 mL HEPES (10 mM) buffer. Complete removal of non-encapsulated FAR is indicated by the absence of a significant fluorescence change upon Trp addition.
In a typical experiment, 20 µL of liposome solution loaded with FAR was diluted in 1 mL HEPES buffer (10 mM, pH 7.0) in a 1 mL quartz cuvette. An emission spectrum was recorded after 10 min of “equilibration time” on a Varian Eclipse spectrofluorometer thermostated at 22 °C with a water bath using λexc = 400 nm for FAR-1, λexc = 310 nm for FAR-2, and λexc = 330 nm for FAR-3. In the time-resolved experiments, the emission intensity at λobs = 450 nm for FAR-1, λobs = 370 nm for FAR-2, and λobs = 370 and 500 nm for FAR-3 (the latter is the emerging excimer band for certain FAR-3•analyte complexes) was recorded with an averaging time of 0.5 s. […] For single-point experiments, a full spectrum was recorded after a fixed time or several time intervals after analyte addition. […] Only FAR-analyte combinations were used for FARMA, for which no significant autofluorescence and competitive light absorption of the analyte occurred.
For each experiment, measurements from 6 injections were accumulated and the average of these traces was used for data analysis.
Calculation of the unimolecular permeation rate constants ( kp) and of the apparent permeability coefficients (Papp).
The passive diffusion (permeation) of small non-charged compounds follows a modified Fick’s law and can be expressed by a first order kinetics.1 Similar to first order chemical reactions, the kinetics curve can therefore be fitted monoexponentially to obtained the observed permeation rates (kobs). In our assay set-up, such an exponential fit is an approximation, since it neglects that a certain fraction of transported analyte is bound to the FAR and cannot exit the liposome. Nevertheless, the fit of the kinetic curves of the […]
approximation is justified.

FAR-1 = experiment: Fluorescence titration, FAR•analyte complex formation in homogeneous solution; type: binding
Procedure: as §1, with “Fig. 1. Note that the high CB8-dye binding affinities correspond to a near quantitative degree of host-dye complexation, i.e., quantitative formation of the FAR, such that the subsequent binding of the analyte can be treated independently.” for “Fig. 1.”

[3] = PAMPA; cited from earlier work
[4] = 298 K; cited from earlier work
Caco-2 = details: cited from earlier work
[5] = Aliquot analysis/flat lipid bilayer (macroscopic bilayer of brain phospholipids); cited from earlier work
[6] = monoexponential fit, analyte 40 µM (bulk), FAR-2 ca. 500 µM in the liposome interior, 20% error
[7] = FAR-1, 10 mM HEPES buffer (pH 7), 1:1 binding model, error estimate ≤ 20%
[8] = FARMA with FAR-loaded liposomes or GUVs
[9] = dye displacement, CB7•BE-, CB8•MV•5OH-Trp- or CB8•MV•2,6-ANS-loaded liposomes

SMILES: Clc1ccccc1Cl [1,2-dichlorobenzene]
- Qualitative assessment of membrane permeability [1]: +

SMILES: Oc1ccc(O)cc1 [1,4-dihydroxybenzene]
- Ka (FAR-2): 2.9 10^3 M−1

SMILES: O=C(O)C1C2CC3CC(C2)CC1C3 (stereo not drawn) [2-adamantyl-carboxylate]
- membrane permeability (in words) [2]: membrane-permeable, albeit at a slower rate

SMILES: Oc1ccc2ccccc2c1 [2-naphthol]
- membrane permeability (in words) (in vitro): permeable
- Qualitative assessment of membrane permeability [1]: +

SMILES: N#Cc1ccccc1O [2CN-phenol, 2-cyanophenol]
- kobs (in vitro; [6]): 10 s–1
- kobs (in vitro; source data of Fig. 5): 10
- log(kobs) (in vitro; source data of Fig. 5): 1
- Ka (FAR-2): 5.8 10^3 M−1

SMILES: CCOc1ccc(O)cc1 [4-ethoxyphenol]
- Ka (FAR-1; [7]): 1 10^3 M−1
- Ka (FAR-2): 1.0 10^3 M−1

SMILES: COc1ccc(O)cc1 [4-methoxyphenol]
- Ka (FAR-2): 2.4 10^3 M−1

SMILES: N#Cc1ccc(O)cc1 [4CN-phenol, 4-cyanophenol]
- kobs (in vitro; not told, pH 7): 40
- log(kobs) (in vitro; not told, pH 7): 1.602
- Ka (FAR-2): 5.2 10^3 M−1
- Qualitative assessment of membrane permeability [1]: +
- Papp Literature [3]: 17 10^−6 cm s^−1

SMILES: Nc1ccccc1 [Aniline, aniline]
- kobs (in vitro; [6]): 7.5 s–1
- kp (in vitro; not told, pH 7): 9400^f
- kobs (in vitro; source data of Fig. 5): 7.5
- log(kobs) (in vitro; source data of Fig. 5): 0.8751
- Ka (FAR-1; [7]): 33 10^3 M−1
- Ka (FAR-2): 25 10^3 M−1
- Papp Literature [3]: 76 10^−6 cm s^−1

SMILES: COc1ccc2cc3[n+](cc2c1OC)CCc1cc2c(cc1-3)OCO2 [BER, berberine]
- dissociation rate from CB7 [4]: 0.8 s⁻¹

SMILES: c1ccc2[nH]ccc2c1 [Indole, indole]
- membrane permeability (in words) (in vitro; [8]): instantaneous; also recorded: permeating
- kobs (in vitro; [6]): 1.8 s–1
- kp (in vitro; not told, pH 7): 3200
- kobs (in vitro; source data of Fig. 5): 1.8
- log(kobs) (in vitro; source data of Fig. 5): 0.2553
- Papp Literature (Caco-2): 57 10^−6 cm s^−1
- Papp Literature [5]: 250 10^−6 cm s^−1

SMILES: CC12CC3CC(C)(C1)CC(N)(C3)C2 [Memantine, 3,5-dimethyladamantan-1-amine, reference compound]
- Papp (in vitro; not told, pH 7): 24 ×10⁻⁶ cm/s
- Papp Literature (Caco-2): 43 10^−6 cm s^−1

SMILES: N[C@@H](Cc1ccccc1)C(=O)O [Phe, phenylalanine]
- Ka (FAR-1; [7]): 5 10^3 M−1
- membrane permeability (in words) [2, 9]: membrane impermeable

SMILES: Oc1ccccc1 [Phenol, phenol]
- Papp (in vitro; not told, pH 7): 112 ×10⁻⁶ cm/s
- kobs (in vitro; not told, pH 7): 2.7 s–1
- log(kobs) (in vitro; not told, pH 7): 0.4314
- time of FARMA signal response (t) (in vitro; not told, pH 7): < 5 s
- Ka (FAR-1; pH 7): 56
- Papp Literature [3]: 47

SMILES: CNC(=C[N+](=O)[O-])NCCSCc1ccc(CN(C)C)o1 [Ranitidine, ranitidine, reference compound]
- Papp at 100 µM (in vitro; not told, pH 7): 0.013 ×10⁻⁶ cm/s
- Ka (FAR-1; [7]): 2 10^3 M−1
- Papp Literature (Caco-2; no passive permeation but active transport): 0.49 10^−6 cm s^−1
- Papp Literature [3]: 0.88 10^−6 cm s^−1

SMILES: NC(=O)C(N)Cc1c[nH]c2ccccc12 (stereo not drawn) [TrpNH2, tryptophanamide]
- Ka (FAR-1; [7]): 460 10^3 M−1
- Papp Literature [3]: 2.7 10^−6 cm s^−1

SMILES: NCCCCCN [cadaverine]
- membrane permeability (in words) [2, 9]: membrane impermeable

SMILES: COc1ccc(B(O)O)cc1 [p-anisylboronic acid]
- Ka (FAR-2): 4.8 10^3 M−1

SMILES: Cc1ccc(C)cc1 [p-xylene, 1,4-dimethylbenzene]
- kobs (in vitro; [6]): 17 s–1
- kobs (in vitro; source data of Fig. 5): 17
- log(kobs) (in vitro; source data of Fig. 5): 1.23
- Qualitative assessment of membrane permeability [1]: +

SMILES: CC(C)NCC(O)COc1cccc2ccccc12 (stereo not drawn) [propranolol, reference compound]
- Ka (FAR-1; [7]): 3 10^3 M−1
- membrane permeability (in words) [2, 9]: membrane permeable

SMILES: O=C([O-])c1ccccc1.[Na+] [sodium benzoate]
- Ka (FAR-2): < 1 10^3 M−1

SMILES: NCCCNCCCCNCCCN [spermine]
- membrane permeability (in words) [2, 9]: membrane impermeable

SMILES: NCCc1ccc(O)cc1 [tyramine]
- membrane permeability (in words) (in vitro; [8]): pass the membrane within several minutes to hours
- membrane permeability (in words) [2, 9]: membrane-permeable
